Measured values as given in patent US20220041606A1, “POSITIVE ALLOSTERIC MODULATORS OF THE MUSCARINIC ACETYLCHOLINE RECEPTOR M1” (Vanderbilt University, priority 2020, published 2022).

What was measured:
human mAChR M1 [1] = molecular target: T1, human mAChR M1 (Homo sapiens, UniProt P11229); assay: mAChR M1 cell-based functional assay (calcium mobilization), agonist activity upon compound addition; conditions: CHO-K1 cells expressing hM1; for EC50: compound alone, before acetylcholine addition; for Emax: relative to the maximum for acetylcholine
T1 construct: host or cells: CHO-K1 cells (ATCC), stably transfected using Lipofectamine2000
T1 sequence (P11229 1-460): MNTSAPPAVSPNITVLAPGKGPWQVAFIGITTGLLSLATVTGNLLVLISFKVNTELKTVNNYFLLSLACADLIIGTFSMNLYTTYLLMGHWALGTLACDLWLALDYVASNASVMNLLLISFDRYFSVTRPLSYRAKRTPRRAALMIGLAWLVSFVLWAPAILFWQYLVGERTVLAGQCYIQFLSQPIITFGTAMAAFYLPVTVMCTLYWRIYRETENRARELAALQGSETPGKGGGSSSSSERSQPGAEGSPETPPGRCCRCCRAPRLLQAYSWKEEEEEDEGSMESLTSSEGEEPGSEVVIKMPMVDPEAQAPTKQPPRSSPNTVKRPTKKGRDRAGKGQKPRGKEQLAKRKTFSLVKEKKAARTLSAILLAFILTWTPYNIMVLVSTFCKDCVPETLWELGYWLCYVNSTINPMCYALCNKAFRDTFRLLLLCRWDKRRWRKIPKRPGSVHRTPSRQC
In short: (§1)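 Fluorescence ratio calcium read-out (Fluo-4 AM, FDSS 6000) in human M1-expressing CHO-K1 cells. Agonist activity taken as concentration-dependent rise after compound addition; potentiation as enhancement of a subsequent EC20 acetylcholine challenge. Curves from 11-point threefold dilutions fitted by four-parameter logistic; Emax expressed versus acetylcholine maximum.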

human mAChR M1 [2] = molecular target: T1, human mAChR M1; assay: mAChR M1 cell-based functional assay (calcium mobilization), PAM activity: increase in the EC20 acetylcholine response; conditions: CHO-K1 cells expressing hM1; potentiation of EC20 acetylcholine response
In short: as §1

Compound | EC50 (human mAChR M1 [1]) [µM] | Emax (human mAChR M1 [1]) [%] | EC50 (human mAChR M1 [2]) [nM] | Emax (human mAChR M1 [2]) [%]
Cn1cc2c(-c3cc(F)c(Cn4cc(C(=O)N[C@H]5CCCCC[C@@H]5O)c5nccn5c4=O)c(F)c3)cccc2n1 [Compound B19, 6-(2,6-difluoro-4-(2-methyl-2H-indazol-4-yl)benzyl)-N-((1S,2S)-2-hydroxycycloheptyl)-5-oxo-5,6-dihydroimidazo[1,2-c]pyrimidine-8-carboxamide] | 5.24 | 51 | 470 | 42
Cn1cc(-c2ccc(Cn3cc(C(=O)N[C@H]4CCOC[C@@H]4O)c4nccnc4c3=O)c(F)c2)cn1 [Compound A77, 6-(2-fluoro-4-(1-methyl-1H-pyrazol-4-yl)benzyl)-N-((3R,4S)-3-hydroxytetrahydro-2H-pyran-4-yl)-5-oxo-5,6-dihydropyrido[3,4-b]pyrazine-8-carboxamide] |  | 18 | 4210 | 72
Cn1cc(-c2ccc(Cn3cc(C(=O)NC4CC5(COC5)C4)c4ncccc4c3=O)c(F)c2)cn1 [Compound A11, 6-(2-fluoro-4-(1-methyl-1H-pyrazol-4-yl)benzyl)-5-oxo-N-(2-oxaspiro[3.3]heptan-6-yl)-5,6-dihydro-1,6-naphthyridine-8-carboxamide] | > 10 | < 5 | 6750 | 58
Cn1cc2c(-c3cc(F)c(Cn4cc(C(=O)N[C@H]5CCCC[C@@H]5O)c5nccnc5c4=O)c(F)c3)cccc2n1 [Compound A52, 6-(2,6-Difluoro-4-(2-methyl-2H-indazol-4-yl)benzyl)-N-((1S,2S)-2-hydroxycyclohexyl)-5-oxo-5,6-dihydropyrido[3,4-b]pyrazine-8-carboxamide] | 4.36 | 50 | 400 | 64
Cn1cc2c(-c3cc(F)c(Cn4cc(C(=O)N[C@H]5CCOC[C@@H]5O)c5nccnc5c4=O)c(F)c3)cccc2n1 [Compound A66, 6-(2,6-difluoro-4-(2-methyl-2H-indazol-4-yl)benzyl)-N-((3R,4S)-3-hydroxytetrahydro-2H-pyran-4-yl)-5-oxo-5,6-dihydropyrido[3,4-b]pyrazine-8-carboxamide] | 5 | 46 | 280 | 72
Cn1cc(-c2ccc(Cn3cc(C(=O)NCC(O)C(F)(F)F)c4nccnc4c3=O)c(F)c2)cn1 (centres unmarked) [Compound A81, 6-(2-fluoro-4-(1-methyl-1H-pyrazol-4-yl)benzyl)-5-oxo-N-(3,3,3-trifluoro-2-hydroxypropyl)-5,6-dihydropyrido[3,4-b]pyrazine-8-carboxamide] | > 10 | < 5 | ≥ 10000 | 33
O=C(N[C@H]1CCOC[C@@H]1O)c1cn(Cc2ccc(-n3cccn3)cc2)c(=O)c2cccnc12 [Compound A12, 6-(4-(1H-pyrazol-1-yl)benzyl)-N-((3R,4S)-3-hydroxytetrahydro-2H-pyran-4-yl)-5-oxo-5,6-dihydro-1,6-naphthyridine-8-carboxamide] |  | 28 | 1390 | 70
O=C(N[C@H]1CCOC[C@@H]1O)c1cn(Cc2ccc(-n3cccn3)cc2)c(=O)c2ccoc12 [Compound D2, 5-(4-(1H-pyrazol-1-yl)benzyl)-N-((3R,4S)-3-hydroxytetrahydro-2H-pyran-4-yl)-4-oxo-4,5-dihydrofuro[3,2-c]pyridine-7-carboxamide] | > 10 | < 5 | > 10000 | 57
Cn1cc(-c2ccc(Cn3cc(C(=O)N[C@H]4CCOC[C@@H]4O)c4ncncc4c3=O)c(F)c2)cn1 [Compound A90, 6-(2-fluoro-4-(1-methyl-1H-pyrazol-4-yl)benzyl)-N-((3R,4S)-3-hydroxytetrahydro-2H-pyran-4-yl)-5-oxo-5,6-dihydropyrido[4,3-d]pyrimidine-8-carboxamide] | > 10 | < 5 | ≥ 10000 | 47
Cc1cc(-c2cc(F)c(Cn3cc(C(=O)N[C@H]4CCOC[C@@H]4O)c4ncccc4c3=O)c(F)c2)ccn1 [Compound A36, 6-(2,6-difluoro-4-(2-methylpyridin-4-yl)benzyl)-N-((3R,4S)-3-hydroxytetrahydro-2H-pyran-4-yl)-5-oxo-5,6-dihydro-1,6-naphthyridine-8-carboxamide] | 1.77 | 13 | 610 | 65
Cn1nccc1-c1ccc(Cn2cc(C(=O)N[C@H]3CCOC[C@@H]3O)c3nccn3c2=O)c(F)c1 [Compound B31, 6-(2-fluoro-4-(1-methyl-1H-pyrazol-5-yl)benzyl)-N-((3R,4S)-3-hydroxytetrahydro-2H-pyran-4-yl)-5-oxo-5,6-dihydroimidazo[1,2-c]pyrimidine-8-carboxamide] | > 10 | 6 | 1130 | 82
Cn1ccc(-c2ccc(Cn3cc(C(=O)NC4CC5(COC5)C4)c4occc4c3=O)c(F)c2)n1 [Compound D10, 5-(2-fluoro-4-(1-methyl-1H-pyrazol-3-yl)benzyl)-4-oxo-N-(2-oxaspiro[3.3]heptan-6-yl)-4,5-dihydrofuro[3,2-c]pyridine-7-carboxamide] | > 10 | < 5 | > 10000 | 25
Cn1cc2c(-c3cc(F)c(Cn4cc(C(=O)N[C@H]5CCCC[C@@H]5O)c5nccn5c4=O)c(F)c3)cccc2n1 [Compound B20, 6-(2,6-difluoro-4-(2-methyl-2H-indazol-4-yl)benzyl)-N-((1S,2S)-2-hydroxycyclohexyl)-5-oxo-5,6-dihydroimidazo[1,2-c]pyrimidine-8-carboxamide] | 2.79 | 63 | 240 | 51
Cc1cncc(-c2cc(F)c(Cn3cc(C(=O)N[C@H]4CCCC[C@@H]4O)c4ncccc4c3=O)c(F)c2)c1 [Compound A43, 6-(2,6-difluoro-4-(5-methylpyridin-3-yl)benzyl)-N-((1S,2S)-2-hydroxycyclohexyl)-5-oxo-5,6-dihydro-1,6-naphthyridine-8-carboxamide] | > 10 | < 5 | 640 | 51
Cc1cn2c(=O)n(Cc3ccc(-c4ccn(C)n4)cc3F)cc(C(=O)N[C@H]3CCOC[C@@H]3O)c2n1 [Compound B25, 6-(2-fluoro-4-(1-methyl-1H-pyrazol-3-yl)benzyl)-N-((3R,4S)-3-hydroxytetrahydro-2H-pyran-4-yl)-2-methyl-5-oxo-5,6-dihydroimidazo[1,2-c]pyrimidine-8-carboxamide] | > 10 | < 5 | 9290 | 33
Cn1ccc(-c2ccc(Cn3cc(C(=O)N[C@H]4CCCC[C@@H]4O)c4ncccc4c3=O)c(F)c2)n1 [Compound A2, 6-(2-fluoro-4-(1-methyl-1H-pyrazol-3-yl)benzyl)-N-((1S,2S)-2-hydroxycyclohexyl)-5-oxo-5,6-dihydro-1,6-naphthyridine-8-carboxamide] | > 10 | < 5 | 730 | 91
Cn1ccc(-c2ccc(Cn3cc(C(=O)N[C@H]4CCC[C@@H]4O)c4nccn4c3=O)c(F)c2)n1 [Compound B3, 6-(2-fluoro-4-(1-methyl-1H-pyrazol-3-yl)benzyl)-N-((1S,2S)-2-hydroxycyclopentyl)-5-oxo-5,6-dihydroimidazo[1,2-c]pyrimidine-8-carboxamide] |  | 33 | 540 | 67
